According to patent US8524917B2, “6-substituted indole-3-carboxylic acid amide compounds having sphingosine-1-phosphate (S1P) receptor antagonist biological activity” (Allergan, Inc., priority 2007, dated 2013):
Where two headings read alike, the source gives them in different places.

Target: human S1P3 receptor (Homo sapiens (Human), UniProt Q99500)
Test: Activation or block of activation of human S1P3 receptor, Ca+2 FLIPR assay
Assay type: cell-based
Conditions: for IC50: read-out: S1P3 IC50
Procedure: Compounds were assessed for their ability to activate or block activation of the human S1P3 receptor in T24 cells stably expressing the human S1P3 receptor. Ten thousand cells/well were plated into 384-well poly-D-lysine coated plates one day prior to use. The growth media for the S1P3 receptor expressing cell line was McCoy's 5A medium supplemented with 10% charcoal-treated fetal bovine serum (FBS), 1% antibiotic-antimycotic and 400 μg/ml geneticin. On the day of the experiment, the cells were washed twice with Hank's Balanced Salt Solution supplemented with 20 mM HEPES (HBSS/Hepes buffer). […] Extracellular dye was removed by washing the cell plates four times prior to placing the plates in the FLIPR (Fluorometric Imaging Plate Reader, Molecular Devices). Ligands were diluted in HBSS/Hepes buffer and prepared in 384-well microplates. The positive control, Sphingosine-1-Phosphate (S1P), was diluted in HBSS/Hepes buffer with 4 mg/ml fatty acid free bovine serum albumin. The FLIPR transferred 12.5 μl from the ligand microplate to the cell plate and took fluorescent measurements for 75 seconds, taking readings every second, and then for 2.5 minutes, taking readings every 10 seconds. […] IC50 values were determined through a […] analysis using the Levenburg Marquardt algorithm.

[1] = T24 cells stably expressing the human S1P3 receptor, FLIPR Ca+2 response, 0.61 nM to 10,000 nM
[2] = T24 cells stably expressing the human S1P3 receptor, value in brackets

Sequence of human S1P3 receptor (Q99500 whole entry): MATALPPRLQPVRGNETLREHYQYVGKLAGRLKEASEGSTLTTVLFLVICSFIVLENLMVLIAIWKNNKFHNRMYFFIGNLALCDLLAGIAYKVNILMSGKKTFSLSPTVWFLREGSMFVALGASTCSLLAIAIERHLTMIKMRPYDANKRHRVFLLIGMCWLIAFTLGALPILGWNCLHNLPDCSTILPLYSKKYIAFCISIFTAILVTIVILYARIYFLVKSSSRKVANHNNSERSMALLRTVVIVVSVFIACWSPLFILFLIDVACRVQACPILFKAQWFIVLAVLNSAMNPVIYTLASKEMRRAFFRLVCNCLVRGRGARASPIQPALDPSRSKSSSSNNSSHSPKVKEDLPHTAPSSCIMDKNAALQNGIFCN

Structure (SMILES) | IC50 [1] [µM] | S1P3 (% inh) [2] [%] | S1P3 (% inh) | IC50 [µM]
CC(C)Oc1ccc2c(C(=O)NCc3ccc(F)c(F)c3)c(C(C)C)n(Cc3ncco3)c2c1 [Compound 213, N-(3,4-Difluorobenzyl)-6-isopropoxy-2-isopropyl-1-(oxazol-2-ylmethyl)-1H-indole-3-carboxamide] | 0.189 | 100 |  | 
CC(C)c1c(C(=O)NCc2cccnc2)c2ccc(OC3CCCC3)cc2n1Cc1ccccn1 | 0.086 | 95 |  | 
C#CCNC(=O)c1ccc2c(C(=O)NCc3ccc(F)c(F)c3)c(C(C)C)n(Cc3ccccc3)c2c1 [Compound 69, 1-Benzyl-N3-(3,4-difluorobenzyl)-2-isopropyl-N6-(prop-2-ynyl)-1H-indole-3,6-dicarboxamide] | 5 | 98 |  | 
CC(C)c1c(C(=O)NCc2ccc(F)c(F)c2)c2ccc(C(=O)O)cc2n1Cc1ccccc1 | > 10 | 40 |  | 
CC(C)c1c(C(=O)NCc2cncc(F)c2)c2ccc(NC3CCCC3)cc2n1Cc1ccccc1 [Compound 193, 1-Benzyl-6-(cyclopentylamino)-N-((5-fluoropyridin-3-yl)methyl)-2-isopropyl-1H-indole-3-carboxamide] |  |  | 163 nM (100) % | 0.163
CC(C)c1c(C(=O)NCc2ccc(F)c(F)c2)c2ccc(O)cc2n1Cc1ccccc1 [Compound 8, 1-Benzyl-N-(3,4-difluorobenzyl)-6-hydroxy-2-isopropyl-1H-indole-3-carboxamide] | 3.1 | 71 |  | 
CC(C)Oc1ccc2c(C(=O)NCc3ccc(F)c(F)c3)c(C3=NCCO3)n(Cc3ccccn3)c2c1 [Compound 104, N-(3,4-Difluorobenzyl)-2-(4,5-dihydrooxazol-2-yl)-6-isopropoxy-1-(pyridin-2-ylmethyl)-1H-indole-3-carboxamide] | 3.9 | 50 |  | 
CCCOc1ccc2c(C(=O)NCc3ccc(F)c(F)c3)c(C(C)C)n(Cc3ncco3)c2c1 [Compound 212, N-(3,4-Difluorobenzyl)-2-isopropyl-1-(oxazol-2-ylmethyl)-6-propoxy-1H-indole-3-carboxamide] |  |  | 393 nM (100) % | 0.393
CC(C)c1c(C(=O)NCc2ccc(F)c(F)c2)c2ccc(OC3CCOC3=O)cc2n1Cc1ccccc1 (stereo not shown) [Compound 20, 1-Benzyl-N-(3,4-difluorobenzyl)-2-isopropyl-6-(2-oxotetrahydrofuran-3-yloxy)-1H-indole-3-carboxamide] | 0.081 | 100 |  | 
CC(C)C(=O)Oc1ccc2c(C(=O)NCc3ccc(F)c(F)c3)c(C(C)C)n(Cc3ccccc3)c2c1 [Compound 25, 1-Benzyl-3-(3,4-difluorobenzylcarbamoyl)-2-isopropyl-1H-indol-6-yl Isobutyrate] |  |  | 14 nM (100) % | 0.014
CC[C@H]1COC(c2ccc3c(C(=O)NCc4cc(F)cc(F)c4)c(C(C)C)n(Cc4ccccn4)c3c2)=N1 [Compound 85, (S)—N-(3,5-Difluorobenzyl)-6-(4-ethyl-4,5-dihydrooxazol-2-yl)-2-isopropyl-1-(pyridin-2-ylmethyl)-1H-indole-3-carboxamide] | 0.018 | 100 |  | 
CC(C)c1c(C(=O)NCc2ccc(F)c(F)c2)c2ccc(OC3CCCC3)cc2n1Cc1cccnc1 [Compound 153, 6-(Cyclopentyloxy)-N-(3,4-difluorobenzyl)-2-isopropyl-1-(pyridin-3-ylmethyl)-1H-indole-3-carboxamide] |  |  | 5 nM (99) % | 0.005
CCNCc1ccc2c(C(=O)NCc3ccc(F)c(F)c3)c(C(C)C)n(Cc3ccccc3)c2c1 | 2.5 | 87 |  | 
Cc1cc(Cn2c(C(C)C)c(C(=O)NCc3ccc(F)c(F)c3)c3ccc(OC4CCCC4)cc32)no1 [Compound 219, 6-(Cyclopentyloxy)-N-(3,4-difluorobenzyl)-2-isopropyl-1-((5-methylisoxazol-3-yl)methyl)-1H-indole-3-carboxamide] | 0.038 | 99 |  | 
CC[C@H]1COC(c2ccc3c(C(=O)NCc4ccc(F)c(F)c4)c(C(C)C)n(Cc4ncco4)c3c2)=N1 [Compound 83, (S)—N-(3,4-Difluorobenzyl)-6-(4-ethyl-4,5-dihydrooxazol-2-yl)-2-isopropyl-1-(oxazol-2-ylmethyl)-1H-indole-3-carboxamide] | 0.28 | 99 |  | 
COC[C@H]1COC(c2ccc3c(C(=O)NCc4ccc(F)c(F)c4)c(C(C)C)n(Cc4ccccc4)c3c2)=N1 [Compound 77, (S)-1-Benzyl-N-(3,4-difluorobenzyl)-2-isopropyl-6-(4-(methoxymethyl)-4,5-dihydrooxazol-2-yl)-1H-indole-3-carboxamide] | 0.046 | 96 |  | 

Structure (SMILES) | IC50 [1] [µM] | S1P3 (% inh) [2] [%] | S1P3 (% inh) | IC50 [µM]
CC(C)c1c(C(=O)NCc2ccc(F)c(F)c2)c2ccc(NC3CCCC3)cc2n1Cc1ccccn1 [Compound 183, 6-(Cyclopentylamino)-N-(3,4-difluorobenzyl)-2-isopropyl-1-(pyridin-2-ylmethyl)-1H-indole-3-carboxamide] | 0.152 | 100 |  | 
CC(C)NC(=O)c1ccc2c(C(=O)NCc3ccc(F)c(F)c3)c(C(C)C)n(Cc3ccccc3)c2c1 | 0.634 | 100 |  | 
CC(C)c1c(C(=O)NCc2ccc(F)c(F)c2)c2ccc(-c3nnco3)cc2n1Cc1ccccc1 [Compound 89, 1-Benzyl-N-(3,4-difluorobenzyl)-2-isopropyl-6-(1,3,4-oxadiazol-2-yl)-1H-indole-3-carboxamide] | 0.059 | 98 |  | 
CC(=O)Oc1ccc2c(C(=O)NCc3ccc(F)c(F)c3)c(C(C)C)n(Cc3ccccc3)c2c1 [Compound 23, 1-Benzyl-3-(3,4-difluorobenzylcarbamoyl)-2-isopropyl-1H-indol-6-yl Acetate] |  |  | 14 nM (100) % | 0.014
CC(C)c1c(C(=O)NCc2ccc(F)c(F)c2)c2ccc(OC3CCOCC3)cc2n1Cc1ccccc1 [Compound 133, 1-Benzyl-N-(3,4-difluorobenzyl)-2-isopropyl-6-(tetrahydro-2H-pyran-4-yloxy)-1H-indole-3-carboxamide] |  |  | 36 nM (99) % | 0.036
CC(C)c1c(C(=O)NCc2ccc(C(F)(F)F)nc2)c2ccc(OC3CCCC3)cc2n1Cc1ccccn1 [Compound 142, 6-(Cyclopentyloxy)-2-isopropyl-1-(pyridin-2-ylmethyl)-N-((6-(trifluoromethyl)pyridin-3-yl)methyl)-1H-indole-3-carboxamide] | 0.048 | 99 |  | 
CC(C)c1c(C(=O)NCc2cc(F)cc(F)c2)c2ccc(C3=N[C@@H](C)CO3)cc2n1Cc1ccccn1 [Compound 84, (S)—N-(3,5-Difluorobenzyl)-2-isopropyl-6-(4-methyl-4,5-dihydrooxazol-2-yl)-1-(pyridin-2-ylmethyl)-1H-indole-3-carboxamide] | 0.04 | 89 |  | 
CCC(=O)Oc1ccc2c(C(=O)NCc3ccc(F)c(F)c3)c(C(C)C)n(Cc3ccccc3)c2c1 [Compound 24, 1-Benzyl-3-(3,4-difluorobenzylcarbamoyl)-2-isopropyl-1H-indol-6-yl Propionate] |  |  | 20 nM (100) % | 0.02
CC(C)c1c(C(=O)NCc2ccc(F)c(F)c2)c2ccc(C3=N[C@@H](C)CO3)cc2n1Cc1cccnc1 [Compound 82, (S)—N-(3,4-Difluorobenzyl)-2-isopropyl-6-(4-methyl-4,5-dihydrooxazol-2-yl)-1-(pyridin-3-ylmethyl)-1H-indole-3-carboxamide] | 0.044 | 100 |  | 
COC(=O)c1ccc2c(C(=O)NCc3ccc(F)c(F)c3)c(C(C)C)n(Cc3ccccc3)c2c1 | 0.012 | 100 |  | 
CC(C)c1c(C(=O)NCc2ccc(F)c(F)c2)c2ccc(/C=N/O)cc2n1Cc1ccccc1 [Compound 55, (E)-1-Benzyl-N-(3,4-difluorobenzyl)-6-((hydroxyimino)methyl)-2-isopropyl-1H-indole-3-carboxamide] | 0.234 | 100 |  | 
CC(C)c1c(C(=O)NCc2ccc(F)c(F)c2)c2ccc(NC3=NCCS3)cc2n1Cc1ccccn1 [Compound 184, N-(3,4-Difluorobenzyl)-6-(4,5-dihydrothiazol-2-ylamino)-2-isopropyl-1-(pyridin-2-ylmethyl)-1H-indole-3-carboxamide] | > 8.3 | 80 |  | 
CC(C)c1c(C(=O)NCc2ccc(F)c(F)c2)c2ccc(N)cc2n1Cc1ccccc1 [Compound 125, 6-Amino-1-benzyl-N-(3,4-difluorobenzyl)-2-isopropyl-1H-indole-3-carboxamide] | 1.7 | 90 |  | 
CC(C)c1c(C(=O)NCc2ccc(F)c(F)c2)c2ccc(OCCN(C)C)cc2n1Cc1ccccc1 [Compound 18, 1-Benzyl-N-(3,4-difluorobenzyl)-6-(2-(dimethylamino)ethoxy)-2-isopropyl-1H-indole-3-carboxamide] | 0.242 | 94 |  | 
CC(C)c1c(C(=O)NCc2ccc(F)c(F)c2)c2ccc(OC3CCN(C(=O)OC(C)(C)C)C3)cc2n1Cc1ccccc1 (stereo not shown) | 0.673 | 100 |  | 
CC(C)c1c(C(=O)NCc2ccc(F)c(F)c2)c2ccc(/C=N/N(C)C)cc2n1Cc1ccccn1 | 0.093 | 100 |  | 
